From ChEMBL document CHEMBL5604062, “ASAP - ZIKV NS2B-NS3 protease fluorescence dose response” (2024) come the findings set out here.

Molecules are shown by their SMILES. Several values for one entry are separate records, joined by “and”; a condition that tells them apart may be missing. Identical values can stand only once. A value given as a limit tells only on which side of the number the result lay.

Nonstructural protein 3, sequence (A0A024AXB9 whole entry): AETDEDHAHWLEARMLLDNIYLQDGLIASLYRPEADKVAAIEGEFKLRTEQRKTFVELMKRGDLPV

This assay concerns the target Nonstructural protein 3 (Zika virus, UniProt A0A024AXB9). The assay is described as follows: Functional biochemical assay to identify treatments for viral infectious disease that targets Zika NS2B-NS3 protease. Utilizing a direct enzyme activity measurement method, reading the fluorescence intensity is used to characterize the relative potency of inhibitors as IC50. Also noted: species or system PRVABC59.
As a reminder, the IC50 is the midpoint of a concentration-inhibition curve. Read a low IC50 as higher potency. `O=C(Nc1ccc2c(c1)CNC2)N1C[C@H](C2CC2)C[C@@H]1C1CC1` displayed an IC50 above 25 µM.
With `Cn1ncc(C(=O)Nc2cc(CCCN)ccn2)c1O`, the IC50 is above 25 µM.
Under `C[C@H]1Oc2c(cccc2C(=O)Nc2ccc3c(c2)CNC3)NC1=O` stands 1.13 µM.
Under `O=C(Nc1ccc2c(c1)CNC2)c1cc(Br)cc2[nH]c(C3CCOCC3)nc12` stands 0.59 µM; under `O=C(Nc1ccc2c(c1)CNC2)c1cc(Cl)cc2cn[nH]c12`, 0.047 µM and 0.042 µM; under `Cc1c[nH]c2ncnc(C(=O)Nc3ccc4c(c3)CNC4)c12`, above 25 µM.
For `O=C(Nc1ccc2c(c1)CNC2)[C@H]1C[C@@H]1c1ccccc1`, the half-maximal inhibitory concentration (IC50) was above 25 µM.
Under `Nc1noc2cccc(C(=O)Nc3ccc4c(c3)CNC4)c12` stands 0.977 µM.
`O=C(Cc1ccc2ncsc2c1)Nc1ccc2c(c1)CNC2` gave an IC50 above 25 µM.
In the case of `CS(=O)(=O)Nc1cccc(C(=O)Nc2ccc3c(c2)CNC3)c1` it was 12.8 µM; in that of `Clc1cc([C@H](C#Cc2ccccc2)Nc2ccc3c(c2)CNC3)c2cn[nH]c2c1`, 1.03 µM.
For `Cc1nc2c(C(=O)Nc3ccc4c(c3)CNC4)cccc2[nH]1`, the IC50 amounted to 3.63 µM.
In the case of `O=C(Nc1ccc2c(c1)CNC2)c1cc(Br)cc2[nH]c(=O)[nH]c12` it was 0.027 µM and 0.025 µM; in that of `O=C(Nc1ccc2c(c1)CNC2)c1ccc2sncc2c1`, 16 µM.
`O=C(NCCCn1ccnc1)[C@H](Nc1ccc2c(c1)CNC2)c1cc(Cl)cc(C2CC2)c1` registered an IC50 of 0.124 µM.
Under `O=C(Nc1ccc2c(c1)CNC2)c1cc(Cl)ccc1-n1cncn1` stands 0.876 µM; under `Clc1cc([C@@H]2C[C@H]2c2cccc(C3CCNCC3)c2)c2cn[nH]c2c1`, 4.53 µM and 7.81 µM.
In the case of `Cc1nc(C2CC2)[nH]c1C(=O)Nc1cc(CCCN)ccn1` it was above 25 µM; in that of `CC(C)c1nccn1C[C@H]1CCCN1C(=O)Nc1ccc2c(c1)CNC2`, above 25 µM.
Under `O=C1COc2c(cccc2C(=O)Nc2ccc3c(c2)CNC3)N1` stands 1.22 µM; under `Cc1c(C(=O)Nc2cc(-c3cccnc3)ccn2)cc(C2CC2)n1C`, 5.84 µM and > 25 µM; under `O=C(Nc1ccc2c(c1)CNC2)c1cc(F)cc2[nH]cnc12`, 0.176 µM.
Turning to `O=C(Nc1ccc2c(c1)CNC2)c1cccc2ccncc12`, the midpoint of inhibition, the IC50, lay at 0.382 µM. Compared with the last molecule, the IC50 is about 2.2-fold higher.
Under `O=C(Nc1ccc2c(c1)CNC2)c1cc(Cl)nc2[nH]ccc12` stands 2.24 µM; under `Cc1nc2c(C(=O)Nc3ccc4c(c3)CNC4)cc(Cl)cc2[nH]1`, 0.117 µM; under `N#C[C@H](Nc1ccc2c(c1)CNC2)c1cncc2ccccc12`, 3.87 µM.
Under `O=C(Nc1ccc2c(c1)CNC2)c1ccc2nc(O)sc2c1` stands above 25 µM; under `CC1CCN(CC[C@H]2CCCN2C(=O)Nc2ccc3c(c2)CNC3)CC1`, above 25 µM; under `CCSc1ccc(Cl)cc1C(=O)Nc1ccc2c(c1)CNC2`, 0.706 µM.
Take `O=C(Nc1ccc2c(c1)CNC2)c1cc2ncccc2s1`: the concentration for half-maximal inhibition (IC50) is above 25 µM.
Under `N#Cc1ccc(C(=O)Nc2ccc3c(c2)CNC3)cc1Cl` stands 11.4 µM.
In turn, `CC(C)(C)OC(=O)N1Cc2cc(NC(=O)c3cc(Cl)cc4[nH]ncc34)cc(Br)c2C1` yielded an IC50 of 16.4 µM.
Under `COC(=O)C(C)(C)NC(=O)[C@H](Nc1ccc2c(c1)CNC2)c1cc(Cl)cc(C2CC2)c1` stands 8.99 µM.
In the case of `O=C(Nc1ccc2c(c1)CNC2)c1cccc(O)c1`, the IC50 turned out to be 3.94 µM.
Under `CCOCC1(c2nc3c(C(=O)Nc4ccc5c(c4)CNC5)cc(Cl)cc3[nH]2)CC1` stands 0.199 µM; under `O=C(Nc1ccc2c(c1)CNC2)c1nc(Cl)nc2[nH]ccc12`, above 25 µM.
In the case of `C=CC[C@H]1NCc2cc(NC(=O)c3cc(F)cc4[nH]ncc34)ccc21` it was 0.289 µM; in that of `Cc1[nH]c2ccccc2c1[C@H]1CCN(C(=O)Nc2ccc3c(c2)CNC3)C1`, above 25 µM; in that of `O=C1COc2cc(C(=O)Nc3ccc4c(c3)CNC4)ccc2N1`, 6.14 µM.
Under `O=C(Nc1ccc2c(c1)CNC2)c1cc(C(F)(F)F)nc2[nH]ccc12` stands 7.32 µM.
Molecule `CN(C)C(=O)N1Cc2ccc(NC(=O)c3cc(Cl)cc4[nH]ncc34)cc2C1` yielded an IC50 above 25 µM.
For the molecule `CC1=CC[C@H](c2cccc(-c3nn[nH]n3)c2)Nc2cc(Cl)ccc21`, the IC50 was above 25 µM.
Turning to `Cc1cc(C)n([C@H]2CCCN(C(=O)Nc3ccc4c(c3)CNC4)C2)n1`, the 50% inhibitory concentration (IC50) is above 25 µM.
`O=C(Nc1ccc2c(c1)CNC2)c1ccc(-c2cncs2)cc1` showed an IC50 above 25 µM.
As to `O=C(Nc1ccc2c(c1)CNC2)c1ncc(Cc2ccccc2)s1`, the IC50 is above 25 µM.
In the case of `CCOC(=O)c1ncoc1CNC(=O)[C@H](Nc1ccc2c(c1)CNC2)c1cc(Cl)cc(C2CC2)c1` it was 0.297 µM.
Turning to `O=C(NC1CCOCC1)[C@H](Nc1ccc2c(c1)CNC2)c1cc(Cl)cc2[nH]ncc12`, the half-maximal inhibitory concentration (IC50) is 0.03 µM and 0.021 µM.
`CC(C)(C)NC(=O)[C@H](Nc1ccc2c(c1)CNC2)c1cc(Cl)cc2[nH]ncc12` came in with a half-maximal inhibitory concentration (IC50) of 3.12 µM.
In the case of `O=C(Nc1ccc2c(c1)CNC2)c1cccc2sccc12` it was 0.456 µM; in that of `O=C(Nc1ccc2c(c1)CNC2)c1cncc2[nH]ncc12`, 0.443 µM; in that of `O=C(Nc1ccc2c(c1)CNC2)N1CCC[C@H]1c1cc(C(F)(F)F)no1`, above 25 µM.
In the case of `O=C(Nc1ccc2c(c1)CNC2)c1ccc2[nH]cnc2c1` it was 2.95 µM.
Under `O=C(Nc1ccc2c(c1)CNC2)c1cc(F)c2[nH]ccc2c1` stands 0.274 µM.
On to `O=C(Nc1ccc2c(c1)CNC2)c1cc(F)cc2c1CCC2`, for which the IC50 was 0.099 µM and 0.09 µM.
In turn, `O=C(Nc1ccc2c(c1)CNC2)c1ccnc2[nH]ccc12` yielded an IC50 of 21.1 µM.
On to `O=C(Nc1ccc2c(c1)CNC2)c1ccc2cc[nH]c2c1`, for which the IC50 is above 25 µM.
As to `NCc1cc(C=C2CC(C(=O)O)C2)cc(NC(=O)c2cc(Cl)cc(NC(=O)OCc3ccccc3)c2)c1` (configuration not stated), the half-inhibitory concentration (IC50) came out at 9.31 µM.
In the case of `O=C(Nc1ccc2c(c1)CNC2)c1cccc2[nH]c(=O)[nH]c12`, the IC50 is 0.068 µM and 0.064 µM.
Under `CC[C@H]1CN(C(=O)Nc2ccc3c(c2)CNC3)C[C@@H]1c1ccc(OC)cc1` stands above 25 µM; under `CC(C)Nc1c(-c2cc(Cl)cc3[nH]ncc23)nc2ccc3c(n12)CNC3`, above 25 µM; under `O=C(Nc1ccc2c(c1)CNC2)c1ccc(OC(F)(F)F)cc1`, above 25 µM.
The molecule `O=C(Nc1ccc2c(c1)CNC2)c1ncnc2[nH]ccc12` displayed an IC50 above 25 µM.
Under `NCc1cc(Cl)cc(C(=O)Nc2ccc3c(c2)C(=O)OC3)c1` stands above 25 µM; under `O=C(Nc1ccc2c(c1)CNC2)c1cc(Cl)cc2[nH]c(-c3ncnn3C3CC3)nc12`, 0.312 µM; under `O=C(Nc1ccc2c(c1)CNC2)c1c(Cl)ccc2c1OCO2`, above 25 µM.
In the case of `O=C(Nc1ccc2c(c1)CNC2)c1cccc2nc(C(F)(F)F)[nH]c12` it was 4.03 µM; in that of `C#C[C@H](Nc1ccc2c(c1)CNC2)c1cccc2c1CCNC2=O`, above 25 µM.
`CC(C)CNC(=O)[C@H](Nc1ccc2c(c1)CNC2)c1cc(Cl)cc2[nH]ncc12`: the IC50 is 0.075 µM and 0.054 µM.
Under `CC(=O)Nc1cccc(C(=O)Nc2ccc3c(c2)CNC3)n1` stands above 25 µM; under `NCCCc1ccnc(NC(=O)c2cc(C3CC3)[nH]n2)c1`, above 25 µM.
Under `NCc1cc(CC(=O)O)cc([C@H]2C[C@@H]2c2cc(Cl)cc(NC(=O)OCc3ccccc3)c2)c1` stands above 25 µM; under `CC(C)(C)NC(=O)[C@H](Nc1ccc2c(c1)CNC2)c1cc(Cl)cc(C2CC2)c1`, 4.69 µM.
In the case of `CCc1cnccc1-c1nc2c(C(=O)Nc3ccc4c(c3)CNC4)cc(Cl)cc2[nH]1` it was 0.364 µM; in that of `CN(C)C(=O)CCCc1nc2c(C(=O)Nc3ccc4c(c3)CNC4)cc(Cl)cc2[nH]1`, 0.28 µM; in that of `O=C(Nc1ccc2[nH]ncc2c1)c1cc(F)cc2[nH]ncc12`, above 25 µM.
As for `CCOCCNC(=O)[C@H](Nc1ccc2c(c1)CNC2)c1cc(Cl)cc2[nH]ncc12`, the IC50 is 0.06 µM and 0.042 µM.
With `O=C1Cc2ccc(NC(=O)c3cc(F)cc4[nH]ncc34)cc2N1`, the IC50 is above 25 µM.
Regarding `O=C(Nc1ccc2c(c1)CNC2)c1cccc2ncccc12`, 3.4 µM corresponded to half-maximal inhibition (IC50). In other words, the single-digit micromolar range.
The molecule `O=C(Nc1ccc2c(c1)CNC2)N1CCC[C@H](Cc2nccs2)C1` returned an IC50 above 25 µM.
Under `O=C1CC[C@H]2[C@H](CCN2C(=O)c2ccc3c(c2)CNC3)N1` stands above 25 µM; under `CCCNC(=O)[C@H](Nc1ccc2c(c1)CNC2)c1cc(Cl)cc2[nH]ncc12`, 0.036 µM and 0.031 µM.
The molecule `O=C(Nc1nc(O)c2c(n1)CNC2)c1cc(Cl)cc2[nH]ncc12` returned an IC50 of 8.43 µM.
Under `CC1(C)C(=O)Nc2ccc(C(=O)Nc3ccc4c(c3)CNC4)cc21` stands 7.49 µM; under `O=C(NCc1cccnc1)[C@H](Nc1ccc2c(c1)CNC2)c1cc(Cl)cc2[nH]ncc12`, 0.122 µM.
Take `O=C(Nc1ccc2c(c1)CNC2)c1ccc2ncccc2c1`: the IC50 was above 25 µM.
In the case of `Clc1cccc([C@H](C#Cc2ccccc2)Nc2ccc3c(c2)CNC3)c1` it was 5.26 µM; in that of `O=C(Nc1ccc2c(c1)CNC2)c1ccc2ncsc2c1`, 0.997 µM; in that of `O=C1Cc2c(cccc2C(=O)Nc2ccc3c(c2)CNCCC3)N1`, 0.569 µM.
As to `CNC(=O)[C@H](Nc1ccc2c(c1)C(=O)OC2)c1cc(Cl)cc2[nH]ncc12`, the IC50 was above 25 µM.
Molecule `O=C(Nc1ccc2c(c1)CNC2)c1cc(Cl)cc2[nH]c(C3(n4ccnn4)CC3)nc12` had an IC50 of 0.765 µM.
`O=C(Nc1ccc2c(c1)CNC2)c1cccc2[nH]cnc12` returned an IC50 of 2.81 µM.
Molecule `C[C@](C#N)(Nc1ccc2c(c1)CNC2)c1cccc(Cl)c1` showed an IC50 above 25 µM.
Under `O=C(Nc1ccc2c(c1)CNC2)c1ccc2[nH]ccc2c1` stands 1.67 µM and 2.5 µM; under `C[C@H](C1CC1)n1ncc2c(C(=O)Nc3ccc4c(c3)CNC4)cc(C3CC3)nc21`, 8.05 µM; under `Cn1cc2c(C(=O)Nc3ccc4c(c3)CNC4)cccc2n1`, 1.13 µM.
In the case of `Cc1csc(CO[C@H]2CCN(C(=O)Nc3ccc4c(c3)CNC4)C2)n1` it was above 25 µM; in that of `Clc1cc([C@H](C#CC2CC2)Nc2ccc3c(c2)CNC3)c2cn[nH]c2c1`, 1.35 µM.
